# According to ChEMBL document CHEMBL1154245, “Parazoanthines A-E, hydantoin alkaloids from the Mediterranean sea anemone Parazoanthus axinellae” (J Nat Prod, 2009):
# Activity calls are given as the source filed them. The rule behind the calls is not given here.
# What was measured:
# MDA-MB-231 = assay: Antitumor activity against human MDA-MB-231 cells; format: functional, cell-based
# Plasmodium falciparum = assay: Antimalarial activity against Plasmodium falciparum FcB1; format: functional, organism-based; conditions: FcB1/Columbia
# HT-29 = assay: Antitumor activity against human HT-29 cells; format: functional, cell-based
# A549 = assay: Antitumor activity against human A549 cells; format: functional, cell-based
# [1] = Toxicity against Dysidea avara
# [2] = Toxicity against Ircinia variabilis
Compound,Activity (MDA-MB-231),Activity (Plasmodium falciparum),Activity (HT-29),Activity (A549),EC50 [1] [nM],EC50 [2] [nM]
N=C(N)NCC/C=C1\NC(=O)N(/C=C/c2ccc(O)cc2)C1=O,inactive,inactive,inactive,inactive,–,–
COc1ccc(/C=C/N2C(=O)N[C@@H](CCCNC(=N)N)C2=O)cc1Br,inactive,inactive,inactive,inactive,–,–
COc1ccc(/C=C/N2C(=O)N/C(=C\CCNC(=N)N)C2=O)cc1 [PARAZOANTHINE C],inactive,inactive,inactive,inactive,1640,1640
N=C(N)NCCC[C@@H]1NC(=O)N(/C=C/c2ccc(O)cc2)C1=O,inactive,inactive,inactive,inactive,–,–
COc1ccc(/C=C/N2C(=O)N/C(=C\CCNC(=N)N)C2=O)cc1Br,inactive,inactive,inactive,inactive,–,–
